This note sets out measurements from patent publication US9617251B2, “Indanylaminopyridylcyclopropanecarboxylic acids, pharmaceutical compositions and uses thereof” (BOEHRINGER INGELHEIM INTERNATIONAL GMBH, priority 2015, dated 2017).

One may read the EC50 as the midpoint of the concentration-response curve. A higher EC50 goes with a less potent agent. Usually IC50 stands for the concentration needed to halve the response being measured. Usually solubility stands for how much of the substance goes into solution per volume. High values mean much dissolved substance, low ones little dissolved substance.

One series deals with human GPR40 receptor (Homo sapiens, UniProt O14842). Put plainly: IP1 accumulation measurements using the IPOne assay system (1321N1 cells stably expressing human GPR40 receptor). It counts as cell-based. As to conditions: 1321N1 cells expressing human GPR40, 1 h stimulation at 37° C. The procedure:
IP1 accumulation measurements using the IPOne assay system—1321N1 cells stably expressing human GPR40 receptor (Euroscreen, Belgium) are seeded 24 h before the assay in white 384-well plates in culture medium containing 10% FCS, 1% Na-Pyruvate and 400 μg/mL G418. IP1 is assayed according to the manufacturer's description (Cisbio Bioassays, France). In brief, the assay is started by substitution of the culture medium by stimulation buffer (Hepes 10 mM, CaCl2 1 mM, MgCl2 0.5 mM, KCl 4.2 mM, NaCl 146 mM, glucose 5.5 mM and LiCl 50 mM, pH 7.4). Cells are stimulated for 1 h at 37° C., 5% CO2 by addition of the compounds that are diluted in stimulation buffer containing LiCl. Assays are stopped by adding HTRF-conjugates (IP1-d2 and Anti-IP1 cryptate Tb) and lysis buffer, provided by the manufacturer. After an incubation time of 1 h at room temperature plates are measured using an EnVision™, Perkin Elmer. The obtained fluorescence ratios at 665/615 […] are then used to calculate the pEC50 values using Assay Explorer 3.3 Software (Accelrys, Inc.) by interpolation using an IP1 reference curve and subsequent sigmoidal curve fitting allowing for a variable hill slope.

Series [1] has as its target T1, cytochrome P450 2C9-isoenzyme (Homo sapiens, UniProt P11712).
T1 construct: from tissue; host or cells: human liver microsomes
Kind of series: Inhibition of CYP-2C9 (hydroxylation of diclofenac, human liver microsomes). As to conditions: CYP-2C9, human liver microsomes, diclofenac 10 μM, 37° C. The format is in vitro ADME. The procedure:
The inhibition of cytochrome P450 2C9-isoenzyme catalyzed hydroxylation of diclofenac by the test compound is assayed at 37° C. with human liver microsomes. All assays are carried out on a robotic system in 96 well plates. The final incubation volume contains TRIS buffer (0.1 M), MgCl2 (5 mM), human liver microsomes (0.1 mg/mL), diclofenac (10 μM) and the test compound at five different concentrations or no compound (high control) in duplicate (e.g., highest concentration 10-50 μM with subsequent serial 1:4 dilutions). Following a short preincubation period, reactions are started with the cofactor (NADPH, 1 mM) and stopped by cooling the incubation down to 8° C. and subsequently by addition of one volume of acetonitrile. An internal standard solution—the stable isotope ^13C6-hydroxydiclofenac—is added after quenching of incubations. Peak area analyte (=metabolite formed) and internal standard is determined by LC-MS/MS. The resulting peak area ratio analyte to internal standard in these incubations is compared to a control activity containing no test compound. Within each of the assay runs, the IC50 of a positive control inhibitor (sulfaphenazole) is determined. Experimental IC50 values are calculated by least square regression according to the following equation: % control activity=(100% control activity/(1+(I/IC50)S))−B with I=inhibitor concentration; S=slope factor; B=background activity (lower plateau of the inhibition curve)
(§1) If the inhibition of the reaction is already >50% at the lowest concentration of the test compound, the IC50 is assigned “<lowest concentration tested” (usually <0.4 μM). If the inhibition of the reaction is still <50% at the highest concentration of the test compound, the IC50 is assigned “>highest concentration tested” (usually >50 μM).
A general note: Liver microsomes are vesicles of endoplasmic reticulum, rich in cytochrome P450 enzymes.

Series [2] concerns the target T2, cytochrome P450 2C8-isoenzyme (Homo sapiens, UniProt P10632).
T2 construct: from tissue; host or cells: human liver microsomes
T2 sequence (P10632 1-490): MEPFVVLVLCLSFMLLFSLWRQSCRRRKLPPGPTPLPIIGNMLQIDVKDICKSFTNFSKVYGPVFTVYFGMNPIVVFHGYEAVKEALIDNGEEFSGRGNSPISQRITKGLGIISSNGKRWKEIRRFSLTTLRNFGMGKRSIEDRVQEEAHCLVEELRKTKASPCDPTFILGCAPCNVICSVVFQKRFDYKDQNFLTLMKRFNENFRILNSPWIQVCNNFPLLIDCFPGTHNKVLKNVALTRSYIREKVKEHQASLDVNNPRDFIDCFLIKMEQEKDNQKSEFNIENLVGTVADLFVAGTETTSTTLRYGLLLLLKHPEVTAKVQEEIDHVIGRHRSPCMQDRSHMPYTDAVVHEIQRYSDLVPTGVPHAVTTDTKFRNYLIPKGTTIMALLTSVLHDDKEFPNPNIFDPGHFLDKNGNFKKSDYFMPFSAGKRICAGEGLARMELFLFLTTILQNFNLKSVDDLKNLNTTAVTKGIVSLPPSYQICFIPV
Kind of series: Inhibition of CYP-2C8 (deethylation of amodiaquine, human liver microsomes). As to conditions: CYP-2C8, human liver microsomes, amodiaquine 1 μM, 37° C. It counts as in vitro ADME. The procedure:
The inhibition of cytochrome P450 2C8-isoenzyme catalyzed deethylation of amodiaquine by the test compound is assayed at 37° C. with human liver microsomes. All assays are carried out on a robotic system in 96 well plates. The final incubation volume contains TRIS buffer (0.1 M), MgCl2 (5 mM), human liver microsomes (0.05 mg/mL), amodiaquine (1 μM) and the test compound at five different concentrations or no compound (high control) in duplicate (e.g. highest concentration 10-50 μM with subsequent serial 1:4 dilutions). Following a short preincubation period, reactions are started with the cofactor (NADPH, 1 mM) and stopped by cooling the incubation down to 8° C. and subsequently by addition of one volume of acetonitrile. An internal standard solution—the stable isotope d5-desethylamodiaquine—is added after quenching of incubations. Peak area analyte (=metabolite formed) and internal standard is determined by LC-MS/MS. The resulting peak area ratio analyte to internal standard in these incubations is compared to a control activity containing no test compound. Within each of the assay runs, the IC50 of a positive control inhibitor (Montelukast) is determined. Experimental IC50 values are calculated by least square regression according to the following equation: % control activity=(100% control activity/(1+(I/IC50)S))−B with I=inhibitor concentration; S=slope factor; B=background activity (lower plateau of the inhibition curve)
as §1

A short description of series [3]: Aqueous solubility in buffer vs acetonitrile/water (1/1), LC-UV. It counts as physicochemical. As to conditions: kinetic from dmso stock, buffer pH 2.2, 24 h shaking, 2.5% DMSO. The procedure:
The aqueous solubility of the compounds of the invention is determined by comparing the amount dissolved in buffer to the amount in an acetonitrile/water (1/1) solution. Starting from a 10 mM DMSO stock solution aliquots are diluted with acetonitrile/water (1/1) or buffer, respectively. After 24 h of shaking, the solutions are filtrated and analyzed by LC-UV. The amount dissolved in buffer is compared to the amount in the acetonitrile solution.
Solubility is usually being measured from 0.001 to 0.125 mg/mL at a DMSO concentration of 2.5%. If more than 90% of the compound is dissolved in buffer, the value is marked with “>”.

The structures appear in SMILES notation. In brackets after ≈: the same amount, converted by molar mass.

T1 sequence (P11712 whole entry): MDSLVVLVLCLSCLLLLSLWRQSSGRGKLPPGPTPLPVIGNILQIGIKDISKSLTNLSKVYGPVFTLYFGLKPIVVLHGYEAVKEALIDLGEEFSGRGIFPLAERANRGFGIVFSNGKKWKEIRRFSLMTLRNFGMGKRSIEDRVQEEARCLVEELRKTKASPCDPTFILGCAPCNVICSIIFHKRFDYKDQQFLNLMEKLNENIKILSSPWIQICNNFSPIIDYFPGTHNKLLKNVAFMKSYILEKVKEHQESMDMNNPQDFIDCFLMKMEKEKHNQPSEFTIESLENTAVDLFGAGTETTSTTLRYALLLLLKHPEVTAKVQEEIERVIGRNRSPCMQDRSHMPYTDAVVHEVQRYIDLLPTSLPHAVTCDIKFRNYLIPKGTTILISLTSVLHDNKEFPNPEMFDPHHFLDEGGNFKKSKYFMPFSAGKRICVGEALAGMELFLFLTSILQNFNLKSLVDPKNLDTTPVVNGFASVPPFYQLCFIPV
human GPR40 receptor, sequence (O14842 whole entry): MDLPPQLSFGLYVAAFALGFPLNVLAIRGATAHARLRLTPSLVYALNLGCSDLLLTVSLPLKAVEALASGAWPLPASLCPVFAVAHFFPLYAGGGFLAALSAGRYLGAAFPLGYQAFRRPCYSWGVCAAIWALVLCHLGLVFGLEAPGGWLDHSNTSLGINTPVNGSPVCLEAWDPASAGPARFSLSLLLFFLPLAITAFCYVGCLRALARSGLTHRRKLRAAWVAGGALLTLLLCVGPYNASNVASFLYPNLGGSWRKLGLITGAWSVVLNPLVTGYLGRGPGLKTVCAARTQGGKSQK

Compound `Cc1cc(-c2nnn(C)n2)cc(C)c1-c1cccc2c1CC[C@H]2Nc1ccc(C2C[C@@H]2C(=O)O)cn1` (mixture of isomers) [Example 5, trans-2-(6-{(R)-4-[2,6-Dimethyl-4-(2-methyl-2H-tetrazol-5-yl)-phenyl]-indan-1-ylamino}-pyridin-3-yl)-cyclopropanecarboxylic acid] gave an EC50 at human GPR40 receptor of 16 nM. In addition, the IC50 turned out to be 48 µM in series [1] and 12 µM in series [2].

As for `Cc1cc(OCCC(C)(C)O)cc(C)c1-c1cccc2c1CC[C@H]2Nc1ccc(C2C[C@@H]2C(=O)O)cn1` (mixture of isomers) [Example 6, trans-2-(6-{(R)-4-[4-(3-Hydroxy-3-methyl-butoxy)-2,6-dimethyl-phenyl]-indan-1-ylamino}-pyridin-3-yl)-cyclopropanecarboxylic acid], on human GPR40 receptor, the concentration for a half-maximal effect (EC50) turned out to be 19 nM. The IC50 in series [1] and in series [2] was over 50 µM in each case.

With `Cc1cc(-c2nnn(C)n2)cc(C)c1-c1ccc(F)c2c1CC[C@H]2Nc1ccc(C2C[C@@H]2C(=O)O)cn1` (mixture of isomers) [Example 7, trans-2-(6-{(R)-4-[2,6-Dimethyl-4-(2-methyl-2H-tetrazol-5-yl)-phenyl]-7-fluoro-indan-1-ylamino}-pyridin-3-yl)-cyclopropanecarboxylic acid], the concentration giving a half-maximal response (EC50) at human GPR40 receptor was determined as 19 nM. The IC50 in series [1] was over 50 µM; in series [2], 38 µM.

On to `Cc1cc(OCCC(C)(C)O)cc(C)c1-c1ccc(F)c2c1CC[C@H]2Nc1ccc(C2C[C@@H]2C(=O)O)cn1` (mixture of isomers) [Example 8, trans-2-(6-{(R)-7-Fluoro-4-[4-(3-hydroxy-3-methyl-butoxy)-2,6-dimethyl-phenyl]-indan-1-ylamino}-pyridin-3-yl)-cyclopropanecarboxylic acid], for which, on human GPR40 receptor, the EC50 was determined as 16 nM. For the same compound, the IC50 in series [1] and in series [2] was over 50 µM in each case.

`Cc1cc(-c2nnn(C)n2)cc(C)c1-c1ccc(F)c2c1CC[C@H]2Nc1ccc([C@H]2C[C@@H]2C(=O)O)cn1` [Example 3, (1S,2S)-2-(6-{(R)-4-[2,6-Dimethyl-4-(2-methyl-2H-tetrazol-5-yl)-phenyl]-7-fluoro-indan-1-ylamino}-pyridin-3-yl)-cyclopropanecarboxylic acid] returned a concentration giving a half-maximal response (EC50) on human GPR40 receptor of 4 nM. Also, the concentration in solution in series [3] (solubility at 24 h) came to 91 µg/mL (≈ 183 µM). Besides, the IC50 is over 50 µM in series [1] and 19 µM in series [2].

Compound `Cc1cc(-c2nnn(C)n2)cc(C)c1-c1cccc2c1CC[C@H]2Nc1ccc([C@@H]2C[C@H]2C(=O)O)cn1` [Example 9, (1R,2R)-2-(6-{(R)-4-[2,6-Dimethyl-4-(2-methyl-2H-tetrazol-5-yl)-phenyl]-indan-1-ylamino}-pyridin-3-yl)-cyclopropanecarboxylic acid] registered an EC50 on human GPR40 receptor of 259 nM.

Take `Cc1cc(OCCC(C)(C)O)cc(C)c1-c1cccc2c1CC[C@H]2Nc1ccc([C@@H]2C[C@H]2C(=O)O)cn1` [Example 10, (1R,2R)-2-(6-{(R)-4-[4-(3-Hydroxy-3-methyl-butoxy)-2,6-dimethyl-phenyl]-indan-1-ylamino}-pyridin-3-yl)-cyclopropanecarboxylic acid]: a half-maximal response on human GPR40 receptor (EC50) required 497 nM.

Consider `Cc1cc(OCCC(C)(C)O)cc(C)c1-c1ccc(F)c2c1CC[C@H]2Nc1ccc([C@@H]2C[C@H]2C(=O)O)cn1` [Example 12, (1R,2R)-2-(6-{(R)-7-Fluoro-4-[4-(3-hydroxy-3-methyl-butoxy)-2,6-dimethyl-phenyl]-indan-1-ylamino}-pyridin-3-yl)-cyclopropanecarboxylic acid], for which a half-maximal effect at human GPR40 receptor (EC50) was put at 568 nM.

Regarding `Cc1cc(OC2CCOCC2)cc(C)c1-c1ccc(F)c2c1CC[C@H]2Nc1ccc([C@H]2C[C@@H]2C(=O)O)cn1` [Example 15], it took 18 nM to reach a half-maximal effect at human GPR40 receptor (EC50). In addition, the IC50 was over 50 µM in series [1] and 26 µM in series [2].

As for `Cc1cc(C(=O)O)cc(C)c1-c1ccc(F)c2c1CC[C@H]2Nc1ccc([C@H]2C[C@@H]2C(=O)O)cn1` [Example 40], the concentration for a half-maximal effect (EC50) at human GPR40 receptor amounted to 940 nM. In addition, the half-inhibitory concentration (IC50) in series [1] and in series [2] was over 50 µM throughout.

`Cc1cc(OCC2(O)CCS(=O)(=O)CC2)cc(C)c1-c1ccc(F)c2c1CC[C@H]2Nc1ccc([C@H]2C[C@@H]2C(=O)O)cn1` [Example 64] showed a half-maximal effective concentration (EC50) on human GPR40 receptor of 29 nM. Besides, the half-inhibitory concentration (IC50) in series [1] and in series [2] was over 50 µM in each case.

In turn, `Cc1cc(OC2CCOCC2)cc(C)c1-c1cccc2c1CC[C@H]2Nc1ccc([C@H]2C[C@@H]2C(=O)O)cn1` [Example 77] displayed an EC50 on human GPR40 receptor of 20 nM.

`Cc1cc(OCC(C)(C)O)cc(C)c1-c1cccc2c1CC[C@H]2Nc1ccc([C@H]2C[C@@H]2C(=O)O)cn1` [Example 79]: on human GPR40 receptor, it took 23 nM to reach a half-maximal effect (EC50).

`Cc1cc(OCC(C)(C)C#N)cc(C)c1-c1cccc2c1CC[C@H]2Nc1ccc([C@H]2C[C@@H]2C(=O)O)cn1` [Example 80] came in with an EC50 at human GPR40 receptor of 22 nM.

Compound `Cc1cc(-c2ccn(C)c(=O)c2)cc(C)c1-c1cccc2c1CC[C@H]2Nc1ccc([C@H]2C[C@@H]2C(=O)O)cn1` [Example 81] displayed a half-maximal effective concentration (EC50) at human GPR40 receptor of 8 nM.

At human GPR40 receptor, `Cc1cc(-c2ccc(=O)n(C)c2)cc(C)c1-c1cccc2c1CC[C@H]2Nc1ccc([C@H]2C[C@@H]2C(=O)O)cn1` [Example 82] yielded an EC50 of 18 nM.

For `Cc1cc(-c2cc(=O)n(C)cn2)cc(C)c1-c1cccc2c1CC[C@H]2Nc1ccc([C@H]2C[C@@H]2C(=O)O)cn1` [Example 83], the EC50 on human GPR40 receptor is 8 nM.

Compound `COc1cc(F)c(-c2cccc3c2CC[C@H]3Nc2ccc([C@H]3C[C@@H]3C(=O)O)cn2)c(F)c1` [Example 84] showed an EC50 at human GPR40 receptor of 212 nM.

At human GPR40 receptor, `O=C(O)[C@H]1C[C@@H]1c1ccc(N[C@@H]2CCc3c(-c4ccccc4C(F)(F)F)cccc32)nc1` [Example 85] displayed an EC50 of 91 nM. Compared with the last compound, the EC50 is about 2.3-fold lower.

`Cc1cc(C(=O)N(C)C)cc(C)c1-c1cccc2c1CC[C@H]2Nc1ccc([C@H]2C[C@@H]2C(=O)O)cn1` [Example 86] showed a 50% effective concentration (EC50) on human GPR40 receptor of 174 nM.
